The text below walks through data of a melting point compilation (Tetko et al.; mined from patent text by program, amines drawn as free bases though some values may be those of a salt).

Turning to `CCOc1ccc(C(c2ccc(C(C)(C)C)cc2)C(C)[N+](=O)[O-])cc1` (stereo not given), the melting point (in general, the temperature of the solid-liquid transition) was in the range of 79 to 82 °C. As for `C[C@]1(COc2ccc(N3CCN(c4ccc(OC(F)(F)F)cc4)CC3)cc2)Cn2cc([N+](=O)[O-])nc2O1`, the figure is 262 to 265 °C; as for `C=CC(C)(C)C(=O)C(Oc1ccc(Cl)cc1)n1ccnc1` (stereo not given), 72 to 74 °C. `CC1=CC(c2cccc([N+](=O)[O-])c2)C2=C(CCCC2=O)N1` (stereo not given) registered a melting point of 183 to 185 °C. The value for `Cc1cc(S(=O)(=O)Nc2cc(F)c(Oc3cnc4ccccc4c3)c(Cl)c2)c(Cl)cc1Cl` was 187 °C; that for `CCN1C(=O)C(C)(C)C(=O)N(C)c2cc(CN(CCn3ccc4oc(C)cc4c3=O)Cc3cccc4c3OCO4)ccc21` was 136 to 138 °C; that for `CC1CCCN(c2cc3nc(C(C)(C)C)sc3cc2N=C=S)C1` (stereo not given) was 47 to 52 °C.

Molecule `Cc1nc(C)c(-c2ccc(C#N)cc2)s1` registered a melting point of 108 to 110 °C. `O=C(O)c1cnn2c(C3CC3)cc(-c3ccc(Cl)cc3)nc12` had a melting point of 242 to 243 °C. As for `CCCCCCCCCCOc1ccc(-c2ccc(C#CCCC(C)O)cc2)cc1` (stereo not given), the figure is 97 to 99 °C; as for `CC(=O)Oc1ccccc1C(=O)NC(Oc1ccc2ccccc2c1)C(Cl)(Cl)Cl` (stereo not given), 158 to 160 °C; as for `CC(c1ccc2c(c1)Cc1ccccc1-2)n1ccnn1` (stereo not given), 160 to 162 °C. As for `Cc1cc(C)n(Cc2ccccc2Cl)c(=O)c1C#N`, the figure is 243 to 245 °C; as for `CC(=O)Oc1ccc(-c2cnc(N)c(Cc3ccccc3)n2)cc1`, 184 to 186 °C; as for `O=C1OCN(C(=O)OCc2ccccc2)[C@H]1CCBr`, 85 °C. As for `N#Cc1ccc(OCc2ccccc2)cc1OCc1ccccc1`, the figure is 100 °C. `COC(=O)COc1ccc(C(=O)c2cccs2)c2c1CCCC2`: the melting point came to 85 °C. As for `O=C1CC(Cc2ccc(F)cc2)CN1` (stereo not given), the figure is 88.5 to 90 °C. Take `O=C(Nc1ccc(Cl)c2c(-n3ccnc3)ccnc12)c1c(Cl)cccc1Cl`: the melting point lay within 259 to 263 °C. As for `C=CCn1cc(C(=O)OCC)c(=O)c2cc(C(=O)OC)ccc21`, the figure is 156 to 163 °C; as for `O=Cc1cn(Cc2ccc(OCc3ccccc3)cc2)nc1-c1ccc(F)cc1`, 97 to 98 °C; as for `O=C(O)CCCCC(=O)NCCc1ccccc1`, 110 to 111 °C. As for `CC(=O)Nc1cccc2c1S(=O)(=O)C(C)C2` (stereo not given), the figure is 115 to 117 °C; as for `Cc1oc(-c2ccccc2)nc1COc1ccc(Cn2cc(CCCCC(=O)O)c(-c3ccccc3)n2)cc1`, 109 to 110 °C. The value for `CCCCCCCCCCOc1cc(OCCCCCCCCCC)cc(C(=O)N(CC(=O)O)CC(=O)O)c1` was 81 to 84 °C; that for `CCNC(=S)NC1=Nc2ccc(OC(F)(F)F)cc2CS1` was 169 to 172 °C; that for `CCOC(=O)c1cc(N(C)C)ncn1` was 40 to 42 °C. The molecule `O=c1[nH]c2c(CCN3CCN(c4ncccn4)CC3)cccc2o1` came in with a melting point of 189 to 190 °C.

`COc1cc(C(C)C)c2c(c1)S(=O)(=O)N(COc1cc(C)nn1C)C2=O` came in with a melting point of 146 to 147 °C. The molecule `COc1ccc(Cl)c2c1NC(=O)C2=[N+]=[N-]` yielded a melting point of 206 to 207 °C. The value for `O=c1c2ccccc2c(Cc2ccc(F)cc2)nn1N1CCNCC1` was 157 to 159 °C; that for `O=C1c2cc(Cl)ccc2-n2cnc(Cl)c2[C@@H]2CCCN12` was 209 to 210 °C; that for `COC(=O)NC[C@H]1CN(c2ccc(-c3nc(Cn4cccn4)cs3)c(F)c2)C(=O)O1` was 142 to 144 °C.

Molecule `CCc1nc(C2CC2)c(C(=O)O)n1Cc1ccc2oc(-c3ccccc3-c3nnn[nH]3)c(Br)c2c1` had a melting point of 198 °C. The value for `OC(c1cscn1)(c1cscn1)C(F)(F)F` was 87 to 89 °C; that for `COCC1(C)CC(n2ccccc2=O)c2cc(C(N)=O)ccc2O1` (stereo not given) was 177 to 179 °C; that for `CCCCCCc1cc2c(s1)NC(=O)CN=C2c1ccccc1C` was 162 to 163 °C. As for `CCC1=NN=C(c2ccc(OC)c(OC)c2)c2cc(OC)c(OC)cc2C1C` (stereo not given), the figure is 157 to 158 °C.

The molecule `COc1ccccc1Oc1c(NS(=O)(=O)c2ccc(C(C)(C)C)cc2)nc(NCCN(C)C)nc1OCCO` returned a melting point of 102 to 106 °C. The value for `CCOc1ccc(OCc2ccccc2OCc2nc(-c3ccccc3)oc2C)cc1CCC(=O)O` was 146 to 147 °C; that for `COc1cc(N)c(Cl)cc1C(=O)NCC1CCN(CCCC(=O)c2ccc(O)cc2)CC1` was 199 to 201 °C. `Cc1ccccc1-c1ccc(C(=O)N2Cc3ccc(C(=O)NCCCCc4ccccc4)n3Cc3ccccc32)cc1C` showed a melting point of 129 to 131 °C. As for `CC(C)(C)OC(=O)N1CCO[C@@H](c2ccc(C#N)cc2)C1`, the figure is 104 °C; as for `CC(C)(C)c1ccc(OCC(=O)NCc2ccc(NS(C)(=O)=O)c(O)c2)cc1`, 112 °C. As for `CC(=O)N1CCN(c2cc3nc(C(C)(C)C)sc3cc2N)CC1`, the figure is 182 to 185 °C; as for `NNC(=O)NN=Cc1ccc(Cl)cc1`, 188 to 189 °C. The value for `N#CC(C#N)CC(=O)c1ccc(Cl)c(Cl)c1` was 142 to 145 °C; that for `CCCn1c(COCC)nc2c(N)nc3ccc(OCCCCCCNC(=O)C(C)C)cc3c21` was 136 to 138 °C. Regarding `Cc1ccc2c(c1)[nH]c1cc(C)ccc12`, the melting point was 280 to 281 °C. As for `CCCCCS(=O)(=O)NC(=O)CCc1ccc(OCCOC)cc1OCC1CCCCC1`, the figure is 81 to 82 °C; as for `COC(=O)c1ccc(-c2ccc(-c3ccccc3)c(-c3ccc4c(c3)C(C)(C)CCC4(C)C)c2)c(O)c1`, 183 to 185 °C; as for `CC(=O)N1c2cc(Cl)ccc2Sc2ccc(C(C)N(O)C(N)=O)cc21` (stereo not given), 157 to 159 °C. For `CC(C)CCCC(C)C1CC=C2C3=C(CCC21C)C1(C)CCC(F)CC1CC3` (stereo not given), the melting point was 98.6 °C. With `O=C(Nc1ccc(C(F)(F)F)cc1)Nc1ccc2c(c1)COC2=O`, the melting point was in the range of 297 to 307 °C. As for `CCOC(=O)C(=CNc1cnc2ccccc2n1)c1ccccc1`, the figure is 193 to 194 °C. As for `CCOC(=O)c1cc2cc([Si](C)(C)C)ccc2n1Cc1cccc(F)c1`, the figure is 80 to 82 °C. The value for `COc1ccc(-c2cc(Cl)c3c(Cl)c(O)ccc3c2)cc1` was 132 to 134 °C. `CCC1(CC)OC(=O)c2cc([N+](=O)[O-])ccc21` returned a melting point of 98.5 to 100 °C. As for `COc1cc2c(cc1Br)CC/C2=C\C#N`, the figure is 180 to 182 °C; as for `CCCCCCCCCCCCCCCCCCS(=O)c1cc2ccccc2c(N)c1O` (stereo not given), 95 to 97 °C; as for `CCOC(=O)c1cn(CC)c2c(=O)c3cc(Cl)ccc3oc2c1=O`, 257 to 259 °C. As for `C1=Cc2ccccc2C2(CO2)c2ccccc21`, the figure is 90 to 91 °C. As for `CN(CCN)CCNC(=O)c1nc(Br)c(N)nc1N`, the figure is 148 to 150 °C; as for `C#CCN(C)Cc1nc2ccc(OC(F)(F)F)cc2s1`, 117 to 120 °C. The molecule `CC1CCCCN1c1ccc([N+](=O)[O-])cc1C(=O)c1ccc(Cl)cc1` (stereo not given) had a melting point of 142 °C. The value for `CCOCCOc1ccc(CCNC(=O)/C=C/c2cccs2)cc1S(=O)(=O)NC(=O)NC` was 65 °C. As for `COc1ccc(C(=O)C2CCN(C(C)=O)CC2)c(OC)c1`, the figure is 132 to 134 °C; as for `COC=C1CN(C(c2ccccc2)c2ccccc2)C1`, 56 to 58 °C. The value for `COc1ccc(C(=O)C2=C(c3ccc(OC)cc3)CCc3cc(OC)ccc32)cc1` was 172 to 173 °C. `CCOC(=O)C1=C(COCCNS(N)(=O)=O)NC(C)=C(C(=O)OC)C1c1ccccc1Cl` (stereo not given): the melting point is 150 to 152 °C.

With `CC(Oc1ccc2c(c1)C(O)C(Cc1cccc(C(=O)O)c1)CO2)c1ccc2ccccc2n1` (stereo not given), the melting point lay in the range of 70 to 73 °C. As for `CC1(C)C(=O)N(Cc2ccccc2Cl)OC1O` (stereo not given), the figure is 122 to 126 °C; as for `Cc1onc(NS(=O)(=O)c2ccccc2)c1Br`, 128 to 130 °C. As for `COc1ccc(S(=O)(=O)N2C(=O)C(N)(c3cc(OC)ccc3OC)c3cc(Cl)ccc32)c(OC)c1` (stereo not given), the figure is 191 °C; as for `CN(N)C(=O)NCC(F)F`, 81 to 84 °C; as for `COC(=O)Cc1ccc(N)c(O)c1`, 112 to 114 °C. The value for `COc1ccc(-c2c(C)ccn2N2C(=O)c3ccccc3C2=O)c(Cl)c1` was 202 to 208 °C. Turning to `CCC(CC)O[C@@H]1C=C(C(=O)OC)C[C@H](CC(O)CO)[C@H]1NC(C)=O` (stereo not given in full), the melting point was in the range of 125 to 126 °C.

In turn, `O=C1CCCC(=O)C1C(=O)c1ccc(C(F)(F)F)c(N2CCSCC2)n1` returned a melting point of 106 °C. As for `COc1cc(OCC(=O)N[C@@H]2CCN(Cc3ccccc3)C2)ccc1C=O`, the figure is 98 to 101 °C; as for `CCCCCN1CC[C@@H](c2ccc(Br)cc2)[C@H](CO)C1` (racemic), 128 to 130 °C.

Regarding `CCC1(C)CCCNC1=O` (stereo not given), the melting point is 67 to 69 °C. The value for `N#CCCC(CCC#N)(CCC#N)[N+](=O)[O-]` was 114 °C. As to `O=C1N(c2cc(Cl)cc(Cl)c2)C(=O)C2(Cc3ccc(Br)cc3)CNCCN12` (stereo not given), the melting point worked out at 92.5 °C. The value for `COc1cc2ccc(-c3cc(OCc4ccccc4)c(OC)cc3[N+](=O)[O-])cc2cc1OC` was 151 to 153 °C. As for `CC(C)(C)c1cc(CCc2nnc(N)o2)cc(C(C)(C)C)c1O`, the figure is 220 to 221 °C; as for `CCOC(=S)c1cc(C)c(Br)cc1N`, 48 to 50 °C. As for `NC(=O)C(Nc1ccc(Cl)cc1)c1c(Cl)cccc1Cl` (stereo not given), the figure is 178 °C; as for `C[C@@H]1Cc2cc(N3C[C@H](CN)OC3=O)ccc2N1C(=O)OCc1ccccc1`, 120 to 122 °C; as for `C[C@@H](c1ccc(-c2[nH]nnc2Cl)cc1)[C@](O)(Cn1cncn1)c1ccc(F)cc1F`, 113 to 115 °C.
